The values below come from US20110046090A1 (BrainCells Inc., priority 2005, published 2011).

The subject of data set [1] is human neural stem cells (hNSCs). Kind of data set: neuronal differentiation of cultured human neural stem cells (TUJ-1 staining), agents alone and in combination.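 As to all read-outs here: cells kept in mitogen-free test media, with growth-factor-free basal medium as the negative control.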 As to conditions: for EC50: % of neuronal positive control, basal media subtracted; for effect on differentiation of hNSCs along a neuronal lineage, agent alone: dose-response, normalized to neuronal positive control.
Protocol: The presence of synergy was determined by use of a combination index (CI). […] The CI is a quantitative measure of the nature of drug interactions, comparing the EC50's of two compounds, when each is assayed alone, to the EC50 of each compound when assayed in combination. The combination index (CI) is equal to the following formula:
where C1 and C2 are the concentrations of a first and a second compound, respectively, resulting in 50% activity in neuronal differentiation when assayed in combination; and IC1 and IC2 are the concentrations of each compound resulting in 50% activity when assayed independently.

The target in the next data set is human mGlu2 receptors (Homo sapiens, UniProt Q14416). The conditions noted are these: in vitro; e.g., below about 10 nM, or below about 5 nM; cited from earlier work.
Chain of human mGlu2 receptors (Q14416 19-872): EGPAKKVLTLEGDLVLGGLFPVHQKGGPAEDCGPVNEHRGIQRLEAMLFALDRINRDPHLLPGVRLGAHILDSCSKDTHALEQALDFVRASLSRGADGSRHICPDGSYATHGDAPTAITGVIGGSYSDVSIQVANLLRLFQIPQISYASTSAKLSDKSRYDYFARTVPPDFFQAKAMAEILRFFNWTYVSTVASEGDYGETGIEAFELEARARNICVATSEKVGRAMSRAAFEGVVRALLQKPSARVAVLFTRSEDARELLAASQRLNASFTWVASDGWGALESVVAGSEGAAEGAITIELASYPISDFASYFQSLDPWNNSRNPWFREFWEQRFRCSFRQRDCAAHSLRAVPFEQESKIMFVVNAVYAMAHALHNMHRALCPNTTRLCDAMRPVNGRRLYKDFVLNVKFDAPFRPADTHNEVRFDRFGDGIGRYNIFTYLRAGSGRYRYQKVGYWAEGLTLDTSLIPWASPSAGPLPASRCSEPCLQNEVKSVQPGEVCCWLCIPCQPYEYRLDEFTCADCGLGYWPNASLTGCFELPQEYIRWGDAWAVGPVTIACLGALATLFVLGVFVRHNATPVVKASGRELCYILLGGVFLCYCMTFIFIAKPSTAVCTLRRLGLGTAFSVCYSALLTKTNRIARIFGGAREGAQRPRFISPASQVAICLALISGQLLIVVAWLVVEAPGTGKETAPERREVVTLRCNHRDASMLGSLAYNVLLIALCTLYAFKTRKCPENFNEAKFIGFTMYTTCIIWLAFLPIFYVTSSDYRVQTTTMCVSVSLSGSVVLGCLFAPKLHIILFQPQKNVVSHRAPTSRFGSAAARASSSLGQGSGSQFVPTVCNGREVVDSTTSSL
A further data set deals with human mGlu3 receptors (Homo sapiens, UniProt Q14832). As to conditions: in vitro; e.g., below about 10 nM, or below about 5 nM; cited from earlier work.
Chain of human mGlu3 receptors (Q14832 23-879): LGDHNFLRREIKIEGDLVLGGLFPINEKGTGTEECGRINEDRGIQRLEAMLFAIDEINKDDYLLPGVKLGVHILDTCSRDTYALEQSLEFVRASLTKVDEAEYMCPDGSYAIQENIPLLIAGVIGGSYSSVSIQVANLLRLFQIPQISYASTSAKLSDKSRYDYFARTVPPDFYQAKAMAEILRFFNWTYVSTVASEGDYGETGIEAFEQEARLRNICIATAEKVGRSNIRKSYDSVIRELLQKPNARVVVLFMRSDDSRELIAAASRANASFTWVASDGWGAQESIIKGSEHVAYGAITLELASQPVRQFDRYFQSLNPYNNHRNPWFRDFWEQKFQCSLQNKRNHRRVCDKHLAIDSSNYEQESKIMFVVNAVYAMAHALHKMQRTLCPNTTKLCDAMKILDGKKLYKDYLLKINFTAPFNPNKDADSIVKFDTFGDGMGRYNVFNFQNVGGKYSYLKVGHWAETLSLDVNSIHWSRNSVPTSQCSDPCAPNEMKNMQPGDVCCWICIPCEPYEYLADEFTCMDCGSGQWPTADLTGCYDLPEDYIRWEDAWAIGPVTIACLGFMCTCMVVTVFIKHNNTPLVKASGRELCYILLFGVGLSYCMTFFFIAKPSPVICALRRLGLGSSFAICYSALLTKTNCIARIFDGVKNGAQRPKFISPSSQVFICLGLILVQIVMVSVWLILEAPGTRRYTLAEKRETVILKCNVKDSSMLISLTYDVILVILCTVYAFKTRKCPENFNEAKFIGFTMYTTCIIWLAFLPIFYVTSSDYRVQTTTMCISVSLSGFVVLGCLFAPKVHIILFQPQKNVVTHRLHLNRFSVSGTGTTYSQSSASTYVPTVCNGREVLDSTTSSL
The subject of data set [2] is human neural stem cells (hNSCs). Kind of data set: astrocyte differentiation of cultured human neural stem cells (GFAP staining). The class given is cell-based. The conditions noted are these: dose-response, normalized to astrocyte positive control.
Protocol: Mitogen-free test media with a positive control for neuronal differentiation, mitogen-free test media with 50 ng/ml BMP-2, 50 ng/ml LIF and 0.5% FBS served as a positive control for astrocyte differentiation, and basal media without growth factors served as a negative control.
The test system is the same in data set [3]. In words: toxicity on human neural stem cells (cell count, nuclear dye Hoechst 33342). Type of data set: cell-based. As to conditions: concentrations up to 100 μM; toxic doses fall below 80% of basal cell count. As for the experimental part: Data is shown as a percent of the basal media cell count. Toxic doses typically fall below 80% of the basal cell count.
Experiments were carried out as described in Example 1, except that the positive control contained basal media only, and cells were stained with nuclear dye (Hoechst 33342).

The test system is the same in data set [4]. Kind of data set: growth of individual neurospheres comprising hNSCs (proliferation). The conditions noted are these: 1 μM, 10 μM and 30 μM; percent increase over basal neurosphere size as a function of time. The class given is cell-based. As for the experimental part:
Results are shown as a percent increase over the basal neurosphere size. Negative control (open circles) is basal media without compound, and positive control (open squares) is basal media with a known proliferative agent.
FIG. 7 is a time-response curve showing the effect of 1 μM (solid diamonds), 10 μM (solid squares), and 30 μM (solid circles) concentrations of baclofen on the growth of individual neurospheres comprising human neural stem cells (hNSCs) as a function of time. Results are shown as a percent increase over the basal neurosphere size. Negative control (open circle) is basal media without compound, and positive control (open square) is basal media with a known proliferative agent.

In a further data set the test system is Male Fischer F344 rats. In words: novelty suppressed feeding antidepressant/anxiolytic assay. The conditions noted are these: oral gavage once daily for 21 days, compounds given two hours prior to testing, 5.0 mg/kg each. The class given is in vivo, rat. As for the experimental part:
Male Fischer F344 rats were administered test compound(s)+vehicle or vehicle only (negative control) by oral gavage once daily for 21 days and evaluated for antidepressant/anxiolytic activity in the novelty suppressed feeding assay as follows. Twenty-four hours prior to behavioral testing, all food was removed from the home cage. At the time of testing a single pellet was placed in the center of a novel arena. Animals were placed in the corner of the arena and latency to eat the pellet was recorded. Compounds were administered two hours prior to testing. A decreased latency to eat the food pellet is indicative of both neurogenesis and antidepressant activity.

In a further data set the test system is Male Fisher F344 rats. Kind of data set: chronic dosing of rats: proliferation and differentiation of neural cells in the dentate gyrus (BrdU). The class given is in vivo, rat. The conditions noted are these: for increase in differentiation of neural progenitor cells into mature neurons, subgranular zone of dentate gyrus: chronic treatment. As for the experimental part:
Male Fisher F344 rats were injected with varying doses of baclofen as a test compound with vehicle, or vehicle only (negative control), once daily for twenty eight days. Rats were injected once daily with 100 mg/kg BrdU on days 9-14 of test compound administrations. Rats were then anesthetized and killed by transcardial perfusion of 4% paraformaldehyde at day 28. Brains were rapidly removed and stored in 4% paraformaldehyde for 24 hours and then equilibrated in phosphate buffered 30% sucrose. Free floating 40 micron sections were collected on a freezing microtome and stored in cryoprotectant. Antibodies against BrdU and cell types of interest (e.g., neurons, astrocytes, oligodendrocytes, endothelial cells) were used for detection of cell differentiation.
Briefly, tissues were washed (0.01 M PBS), endogenous peroxidase blocked with 1% hydrogen peroxide, and incubated in PBS (0.01 M, pH 7.4, 10% normal goat serum, 0.5% Triton X-100) for 2 hours at room temperature. Tissues were then incubated with primary antibody at 4° C. overnight. The tissues were rinsed in PBS followed by incubation with biotinylated secondary antibody (1 hour at room temperature). Tissues were further washed with PBS and incubated in avidin-biotin complex kit solution at room temperature for 1 hour. Various fluorophores linked to streptavidin were used for visualization. Tissues were washed with PBS, briefly rinsed in dH2O, serially dehydrated and coverslipped. Cell counting and unbiased stereology was limited to the hippocampal granule cell layer proper and one 50 um border along the hilar margin that includes the neurogenic subgranular zone. The proportion of BrdU cells displaying a lineage-specific phenotype was determined by scoring the co-localization of cell phenotype markers with BrdU using confocal microscopy. Split panel and z-axis analysis were used for all counting. All counts were performed using multi-channel configuration with a 40× objective and electronic zoom of 2. When possible, 100 or more BrdU-positive cells were scored for each marker per animal. Each cell was manually examined in first full “z”-dimension and only those cells for which the nucleus is unambiguously associated with the lineage-specific marker were scored as positive.
The total number of BrdU-labeled cells per hippocampal granule cell layer and subgranule zone were determined using diaminobenzidine stained tissues. Over-estimation was corrected using the Abercrombie method for nuclei with empirically determined average diameter of 13 um within a 40 um section.

The conditions of data set [5]: in vivo; cited from earlier work.
For data set [6] the following is noted: cited from earlier work.
Another data set deals with mGluR2 (Homo sapiens, UniProt Q14416). As to conditions: cited from earlier work.
Chain of mGluR2 (Q14416 19-872): as the sequence (Q14416 19-872) above
The target in a further data set is mGluR3 (Homo sapiens, UniProt Q14832). The conditions noted are these: cited from earlier work.
Chain of mGluR3 (Q14832 23-879): as the sequence (Q14832 23-879) above
[7] abbreviates: Homo sapiens, Neural stem cell, read-out: EC50 for neuronal differentiation, agent alone, compound run individually.
Where [8] appears, read: read-out: EC50 for neuronal differentiation, agent alone, compound run individually.

Values joined by “and” are separate entries in the source; they are usually repeats but may differ in a detail not shown here. Equal values may be shown once. “Also recorded” adds a separate entry of the source. Read-outs that look alike come from different tables or passages of the source. Bounds are passed on as bounds.

For orientation: EC50 means the midpoint of the concentration-response curve. By IC50 is commonly meant the midpoint of a concentration-inhibition curve.

Take `CCOC(=O)[C@H](CCc1ccccc1)N[C@H]1CCc2ccccc2N(CC(=O)O)C1=O` [benazepril]: in data set [1] (setting [7]), the EC50 stood at 5.5 µM.

As for `O=C(O)[C@@H]1C[C@@H](C2CCCCC2)CN1C(=O)CP(=O)(O)CCCCc1ccccc1` [fosinoprilat], in [1] (setting [7]), the EC50 was found to be 3.3 µM.

For the compound `N[C@@]1(C(=O)O)CO[C@H]2[C@H](C(=O)O)[C@H]21` [LY379268, (−)-2-Oxa-4-aminobicyclohexane-4,6-dicarboxylic acid], the EC50 result on human mGlu2 receptors and at human mGlu3 receptors was “low nanomolar range” each time.

Take `CCCCN(CC)c1nc(C)nc2c1c(C)c(C)n2-c1c(C)cc(C)cc1C` [antalarmin]: in [1] (setting [7]), the EC50 came out at 2.33 µM.

For the compound `CC(C)c1c(C(=O)Nc2ccccc2)c(-c2ccccc2)c(-c2ccc(F)cc2)n1CC[C@@H](O)C[C@@H](O)CC(=O)O` [atorvastatin], in data set [1] (setting [7]), the EC50 came to 0.003 µM.

As for `CCCCc1ncc(/C=C(\Cc2cccs2)C(=O)O)n1Cc1ccc(C(=O)O)cc1` [eprosartan], the EC50 in data set [1] (setting [7]) turned out to be 0.03 µM.

For `COC(=O)[C@@H]1[C@H]2C[C@H]3c4[nH]c5ccccc5c4CCN3C[C@@H]2CC[C@@H]1O` [yohimbine], the EC50 in data set [1] (setting [7]) turned out to be 1.96 µM.

Turning to `NCCCC(=O)O` [GABA], in data set [2], the “effect on differentiation of hNSCs along an astrocyte lineage” value is “no detectable effect; also recorded: did not exhibit a significant effect on astrocyte differentiation”. The “toxicity on hNSCs (cell count as percent of basal media cell count)” value in [3] is “Neither GABA nor baclofen exhibited toxicity; also recorded: did not exhibit significant toxicity”. In data set [4], the “effect on neurosphere growth / cell proliferation” value is “positive effect on cell proliferation”. Moreover, the “effect on differentiation of hNSCs along a neuronal lineage, agent alone” value in data set [1] is recorded as “promoted neuronal differentiation; also recorded: significant enhancement”.

`CC(C)C[C@H](CN)CC(=O)O` [pregabalin, (S)-(+)-3-isobutylgaba]: the “antidepressant and anxiolytic effects in novelty suppressed feeding” value in the data set with Male Fischer F344 rats is reported as “no effects”. Besides, in data set [1] (setting [8]), the concentration for a half-maximal effect (EC50) is 0.57 µM and 3.39 µM and 4.13 µM.

Take `CCCc1nc2c(C)cc(-c3nc4ccccc4n3C)cc2n1Cc1ccc(-c2ccccc2C(=O)O)cc1` [telmisartan]: the EC50 in [1] (setting [7]) worked out at 0.02 µM.

Consider `NCC(CC(=O)O)c1ccc(Cl)cc1` (stereo not drawn) [baclofen, Baclofen], for which the “effect on differentiation of hNSCs along an astrocyte lineage” value in data set [2] was “did not exhibit a significant effect on astrocyte differentiation”; in data set [2] (listed as Baclofen) it was “no detectable effect”. For the same compound, the “toxicity on hNSCs (cell count as percent of basal media cell count)” value in data set [3] is “Neither GABA nor baclofen exhibited toxicity; also recorded: did not exhibit significant toxicity”. Also, the “effect on neurosphere growth / cell proliferation” value in data set [4] was “positive effect on cell proliferation”. Besides, the “increase in differentiation of neural progenitor cells into mature neurons, subgranular zone of dentate gyrus” value in the data set on Male Fisher F344 rats (0.75 mg/kg/day) amounted to 8%; in the data set on Male Fisher F344 rats (1.50 mg/kg/day), 5%. For the same compound, the “neural cell proliferation within the dentate gyrus (mean number of BrdU-positive cells)” value in the data set on Male Fisher F344 rats (injection once daily for twenty eight days, 0.75 and 1.50 mg/kg) is on record as “dose-related increase in proliferation”. In addition, the “neurogenic effects in vivo” value in the data set with Male Fisher F344 rats (once daily for twenty eight days) is “produces neurogenic effects with a rapid onset of action”. Moreover, the figures for the EC50 in data set [1] (setting [7]) and in [1] (setting [8]) were 3.84 µM and 3.2 µM, respectively. For the same compound, the results for the “effect on differentiation of hNSCs along a neuronal lineage, agent alone” value in data set [1] and in data set [1] (listed as Baclofen) were “significant enhancement” and “promoted neuronal differentiation”, respectively.

Turning to `NCC1(CC(=O)O)CCCCC1` [gabapentin, Gabapentin], the EC50 in [1] (setting [8]) was 0.68 µM and 4.32 µM and 2.66 µM.

In the case of `CCC[C@H](N[C@@H](C)C(=O)N1[C@H](C(=O)O)C[C@@H]2CCCC[C@@H]21)C(=O)O` [perindoprilat, Perindoprilat], in data set [1] (setting [7]), the EC50 came to 3.5 µM.

For the compound `Clc1ccc2c(c1)N=C(N1CCNCC1)c1ccccc1N2` [N-desmethylclozapine], the EC50 in [1] (setting [8]) is over 100 µM.

In the case of `COCCCOc1cc(C[C@@H](C[C@H](N)[C@@H](O)C[C@H](C(=O)NCC(C)(C)C(N)=O)C(C)C)C(C)C)ccc1OC` [aliskiren, (2S,4S,5S,7S)-5-amino-N-(2-carbamoyl-2-methyl-propyl)-4-hydroxy-7-{[4-methoxy-3-(3-methoxypropoxy)phenyl]methyl}-8-methyl-2-propan-2-yl-nonanamide], the plasma half-life entry in [5] is on record as “≈ 24 hours”. In [6], the water solubility entry was “good water solubility”. In addition, the EC50 in [1] (setting [7]) was 2.79 µM.

Turning to `NCCCC[C@H](N[C@@H](CCc1ccccc1)C(=O)O)C(=O)N1CCC[C@H]1C(=O)O` [lisinopril], in data set [1] (setting [7]), the EC50 was 3.8 µM.

Regarding `CCOc1nc2cccc(C(=O)O)c2n1Cc1ccc(-c2ccccc2-c2nnn[nH]2)cc1` [candesartan], the “antidepressant and anxiolytic effects in novelty suppressed feeding” value with Male Fischer F344 rats is given as “no effects”. Also, the EC50 in data set [1] (setting [7]) is 1.17 µM; in data set [1] (setting [8]), 1.33 µM.

Consider `NC(=O)c1ncn([C@@H]2O[C@H](CO)[C@@H](O)[C@H]2O)n1` [ribaviran, ribavirin], for which the EC50 in [1] (setting [7]) turned out to be 6.1 µM.

Regarding `O=C1CC[C@@]2(O)[C@H]3Cc4ccc(O)c5c4[C@@]2(CCN3CC2CC2)[C@H]1O5` [naltrexone], the EC50 in data set [1] (setting [7]) was determined as 7.3 µM.

Regarding `NC1(C(=O)O)CCc2cc(P(=O)(O)O)ccc21` (racemic) [APICA, (RS)-1-amino-5-phosphonoindan-1-carboxylic acid], the IC50 at mGluR2 and on mGluR3 was about 30 µM throughout.

With `C[C@H](CS)C(=O)N1CCC[C@H]1C(=O)O` [captopril], in data set [1] (setting [7]), the EC50 came out at 3.8 µM.

In the case of `C[C@H](N[C@@H](CCc1ccccc1)C(=O)O)C(=O)N1Cc2ccccc2C[C@H]1C(=O)O` [quinaprilat, Quinaprilat], in data set [1] (setting [7]), the EC50 was determined as 2.4 µM.

In the case of `NC(=O)C[S+]([O-])C(c1ccccc1)c1ccccc1` (stereo not drawn) [modafinil], the EC50 in [1] (setting [7]) amounted to 3.44 µM.

Take `CCCCc1nc(Cl)c(CO)n1Cc1ccc(-c2ccccc2-c2nn[nH]n2)cc1` [losartan]: the EC50 in data set [1] (setting [7]) was found to be 0.31 µM.
